Experiments:
SKH1 hairless mice [1] = assay: UVB-induced sunburn model: histological examination of skin samples 48 hr following UVB exposure; assay type: in vivo; details: for outcome of healing (overall healing, histology) / mice with overall epidermal healing fair to good: 48 hr; for outcome of healing (overall healing, histology): hydrochloride; for mice with overall epidermal healing fair to good: vehicle 0%
Protocol: (§1) A xenon arc lamp (Newport Corp, USA) was used as a source of UVB. SKH1 hairless mice, lying on their stomachs with their left sides covered, were exposed to 120 mJ/cm2 UVB radiation. Regions of back skin were treated topically with oxymetazoline hydrochloride 0.5% gel at 20 min, 4 hr or 8 hr post-UVB. An additional group had the vehicle applied topically at 20 min post UVB exposure. Erythema on the exposed and unexposed back was measured using a chromameter (Konica Minolta) at 2 and 4 hr post-UVB exposure. Skin samples were collected 48 hr following UVB exposure and examined histologically to assess the extent of injury.

SKH1 hairless mice [2] = assay: UVB-induced sunburn model: erythema on back skin measured with a chromameter; assay type: in vivo
Protocol: as §1

Substance: oxymetazoline hydrochloride
- epidermal separation (SKH1 hairless mice [1]; 0.5% topical applied 20 minutes post UVB, 48 hours, n=6): reduced the occurrence and/or severity of epidermal separation
- outcome of healing (overall healing, histology) (SKH1 hairless mice [1]; 0.5% topical applied 20 minutes post UVB, vs vehicle controls): potentially improved the outcome
- outcome of healing (overall healing, histology) (SKH1 hairless mice [1]; 0.5% topical applied 20 minutes post UVB, vs vehicle controls, listed as oxymetazoline): slightly improved the outcome of healing
- epidermal separation (SKH1 hairless mice [1]; 0.5% topical applied 4 hours post UVB, 48 hours, n=6): reduced the occurrence and/or severity of epidermal separation
- outcome of healing (overall healing, histology) (SKH1 hairless mice [1]; 0.5% topical applied 4 hours post UVB, vs concurrent and historical vehicle controls): more positive outcome
- outcome of healing (overall healing, histology) (SKH1 hairless mice [1]; 0.5% topical applied 4 hours post UVB, vs concurrent and historical vehicle controls, listed as oxymetazoline): improved the outcome of healing
- adaptive response in histological sections (epidermal proliferation, adaptive hyperplasia) (SKH1 hairless mice [1]; 0.5% topical applied 8 hours following injury, skin collected at 48 hours, vs vehicle-treated): greater degree of a positive adaptive response
- epidermal hyperplasia (adaptive healing response) (SKH1 hairless mice [1]; 0.5% topical applied 8 hours following the injury, 48 hours, n=6): resulted in more individuals who had progressed to advanced healing
- epidermal separation (SKH1 hairless mice [1]; 0.5% topical applied 8 hours post UVB, 48 hours, n=6): reduced the occurrence and/or severity of epidermal separation
- outcome of healing (overall healing, histology) (SKH1 hairless mice [1]; 0.5% topical applied 8 hours post UVB, vs concurrent and historical vehicle controls): more positive outcome
- outcome of healing (overall healing, histology) (SKH1 hairless mice [1]; 0.5% topical applied 8 hours post UVB, vs concurrent and historical vehicle controls, listed as oxymetazoline): improved the outcome of healing
- mice with overall epidermal healing fair to good (SKH1 hairless mice [1]; 0.5% topical applied at 20 minutes post UVB, n=6): 33%
- mice with overall epidermal healing fair to good (SKH1 hairless mice [1]; 0.5% topical applied at 4 hours post UVB, n=6): 50%
- mice with overall epidermal healing fair to good (SKH1 hairless mice [1]; 0.5% topical applied at 8 hours post UVB, n=6): 67%
- inhibition of erythema (SKH1 hairless mice [2]; 0.5% topical gel applied 20 minutes following 120 mJ/cm2 UVB, 2 hr timepoint, p<0.001): almost completely inhibited the erythema
- inhibition of erythema (SKH1 hairless mice [2]; 0.5% topical gel applied 20 minutes following UVB, 4 hr post-UVB exposure): no inhibition of the erythema

Reference: patent publication US20200054608A1, “ALPHA ADRENERGIC AGONISTS FOR THE TREATMENT OF TISSUE TRAUMA” (Allergan, Inc., priority 2013, published 2020)
